What was measured:
recombinant MMP-9 enzyme = target: T1, recombinant MMP-9 enzyme (Homo sapiens, UniProt P14780); experiment: MMP-9 inhibitor screening assay (fluorometric); format: biochemical; details: 40 μg/ml; no significant difference to NNGH control
T1 construct: purchased Abcam ab139449
Protocol: The MMP-9 inhibitor screening assay (fluorometric) kits were purchased from Abcam (Melbourne, Australia). The fluorometric kit contains the recombinant MMP-9 enzyme, MMP inhibitor NNGH (N-isobutyl-N-[4-methoxyphenylsulfonyl]glycyl hydroxamic acid), MMP fluorogenic substrate solubilised in DMSO, the fluorometric assay buffer and 96-well clear microplate.
Inhibitory activity on MMP-9 was assessed using the commercial MMP-9 inhibitor screening assay kit. MMP-9 activity was expressed as a change in fluorescence intensity measured using SpectraMax iD3 multi-mode microplate reader (Molecular Devices, San Jose, USA).
The assay employs a FRET-tagged (fluorescence resonance energy transfer) substrate, which can be hydrolysed by MMP-9 at a specific site (Abcam, 2018). The cleavage of the FRET substrate releases the quenched fluorescent Mca (7-methoxycoumarin-4-yl)-acetyl group (Abcam, 2018). The kit employs a quenched fluorogenic substrate Mca-Pro-Leu-Gly-Leu-Dpa-Ala-Arg-NH2, where the Mca fluorescence is quenched by Dpa until cleavage by MMPs. The amount of fluorescent product yielded by MMP-9 can be detected fluorometrically and it is proportional to the enzyme activity. Fluorescence were measured at ex320 nm-em395 nm to minimise fluorescence interference from 3,6,7-trimethyllumazine at ex330 nm-em470 nm. […]

active MMP-9 = experiment: Gelatin gel zymography, active MMP-9 band; format: biochemical; details: active MMP-9 (~37 kDa band); densitometry vs no inhibitor; n=5
Protocol: (§1) Novex™ 10% Zymogram Plus (Gelatin) Protein Gels (15 wells) were purchased from Thermo Fisher Scientific Inc. (Auckland, New Zealand). All chemicals required for the zymogram analysis were also purchased from Thermo Fisher, these include Novex™ Sharp Pre-stained Protein Standard, Novex Tris-Glycine SDS sample buffer, Novex Tris-Glycine SDS running buffer, Novex Zymogram renaturing buffer and Novex Zymogram developing buffer. […] Gelatin gel zymography was performed as an independent technique to confirm the inhibition of MMP-9 from 3,6,7-trimethyllumazine. This technique uses a non-reducing SDS-PAGE (sodium dodecyl sulfate polyacrylamide gel electrophoresis) gel embedded with gelatin. Proteins are migrated and separated during electrophoresis. The SDS is removed after electrophoresis and the gel is then incubated with essential cofactors required for enzymatic activity. The embedded gelatin can be digested by MMP-9, resulting in clear bands on a dark blue background after staining with Coomassie blue dyes. The gelatinase activity is represented by band densitometry, which can be assessed with image analysis software. […]
(§2) After incubation, the gelatin gel was rinsed with water for three times (5 min each) under gentle agitation. […] MMP-9 activities were analysed using densitometry on ImageJ Version 1.52a. […]

[1] = test system: inactive MMP-9 (pro-MMP-9); experiment: Gelatin gel zymography, inactive MMP-9 band; format: biochemical; details: inactive MMP-9 (~47 kDa band); densitometry vs no inhibitor; n=5
Protocol: as §1, §2

[2] = test system: differentiated THP-1 cells; experiment: WST-1 cell viability, differentiated THP-1 cells; format: cell-based; details: for cell death: human
Protocol: To measure cytotoxicity of 3,6,7-trimethyllumazine at different doses, 2-(4-Iodophenyl)-3-(4-nitrophenyl)-5-(2,4-disulfophenyl)-2H-tetrazolium, monosodium salt (WST-1) (Roche, 11644807001, Lot #45255800) was used. WST-1 is a cell proliferation reagent for measurement of cellular proliferation, viability, and cytotoxicity using a colorimetric assay (Gosert (2011); Peskin (2000)).
After incubation, a portion of the culture media was taken and stored for MMP-9 secretion testing using ELISA. The remaining media in the plates was then removed and 100 μl of WST-1 in RPMI-1640 media (1:10 dilution) was added to each cell well and incubated at 37° C. for a further 4 hours. The plates were then read using a plate reader at wavelength of 450 nm. Cytotoxicity was calculated as follows:
[WST-1 score for each sample/WST-1 score for the control]×100
A WST-1 score below 80% will be considered cytotoxic.

T1 sequence (P14780 94-707): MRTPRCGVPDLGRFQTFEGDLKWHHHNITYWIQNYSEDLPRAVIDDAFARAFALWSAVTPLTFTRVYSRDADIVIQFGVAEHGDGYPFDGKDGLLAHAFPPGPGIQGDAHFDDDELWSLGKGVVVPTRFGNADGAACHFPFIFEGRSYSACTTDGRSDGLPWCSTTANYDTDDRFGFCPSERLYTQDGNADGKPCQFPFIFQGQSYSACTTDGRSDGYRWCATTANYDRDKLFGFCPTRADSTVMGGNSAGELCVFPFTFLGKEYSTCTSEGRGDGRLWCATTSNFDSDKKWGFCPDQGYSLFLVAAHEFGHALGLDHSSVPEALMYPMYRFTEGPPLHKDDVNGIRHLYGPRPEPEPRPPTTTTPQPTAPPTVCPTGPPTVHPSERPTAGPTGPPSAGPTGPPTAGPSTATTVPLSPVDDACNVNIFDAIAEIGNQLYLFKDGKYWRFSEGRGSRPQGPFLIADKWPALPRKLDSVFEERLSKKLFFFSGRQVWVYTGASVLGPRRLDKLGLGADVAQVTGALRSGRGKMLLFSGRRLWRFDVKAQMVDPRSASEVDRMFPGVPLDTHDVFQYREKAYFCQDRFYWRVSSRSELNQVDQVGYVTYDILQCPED

Cc1nc2[nH]c(=O)n(C)c(=O)c2nc1C [3,6,7-trimethyllumazine] was tested, and the “inhibition of MMP-9 activity” value (recombinant MMP-9 enzyme) was “almost completely inhibited”, the “percentage inhibition of gelatinase activity” value (active MMP-9) was 31% and the “percentage inhibition of gelatinase activity” value [1] was 17%. For the same compound, the “WST-1 score (cell viability)” value ([2]; 40 μg/mL, below 80% considered cytotoxic) was 79.8%, the cell death ([2]; 30 μg/mL) was 13% and the cell death ([2]; 40 μg/mL) was 20%.

Source: patent US20230226065A1, “ANTI-INFLAMMATORY COMPOSITIONS, METHODS AND USES THEREOF” (COMVITA LIMITED, priority 2020, published 2023)
